Assay [1] has as its target T1, β-D-galactosidase (bovine) (Bos taurus, UniProt Q58D55).
T1 construct: purchased Sigma-Aldrich
T1 sequence (Q58D55 28-653): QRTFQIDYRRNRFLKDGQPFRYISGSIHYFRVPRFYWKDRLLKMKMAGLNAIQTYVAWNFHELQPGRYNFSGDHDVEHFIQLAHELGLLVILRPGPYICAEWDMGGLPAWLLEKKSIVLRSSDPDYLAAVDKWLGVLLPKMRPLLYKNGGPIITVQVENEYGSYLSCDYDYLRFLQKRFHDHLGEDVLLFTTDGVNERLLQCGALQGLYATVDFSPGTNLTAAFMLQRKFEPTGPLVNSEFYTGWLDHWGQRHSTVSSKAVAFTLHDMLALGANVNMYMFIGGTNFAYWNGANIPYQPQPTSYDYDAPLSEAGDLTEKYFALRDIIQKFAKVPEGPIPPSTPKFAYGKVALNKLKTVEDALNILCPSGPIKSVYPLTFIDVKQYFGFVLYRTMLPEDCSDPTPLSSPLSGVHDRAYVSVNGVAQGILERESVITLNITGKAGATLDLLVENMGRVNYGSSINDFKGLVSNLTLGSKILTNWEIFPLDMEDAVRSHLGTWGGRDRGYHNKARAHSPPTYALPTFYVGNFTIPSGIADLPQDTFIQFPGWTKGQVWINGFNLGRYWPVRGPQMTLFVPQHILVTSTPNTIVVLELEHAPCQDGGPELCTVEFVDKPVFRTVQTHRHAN
On the set-up: key: NI = no inhibition. As to conditions: typical DNJ inhibitory activity shown for reference, in words; cited from earlier work.

Assay [2] has as its target T2, α-D-galactosidase (green coffee bean) (Coffea arabica, UniProt Q42656).
T2 construct: purchased Sigma-Aldrich
As to conditions: typical DNJ inhibitory activity shown for reference, in words; cited from earlier work.

The test system of assay [3] is α-D-glucosidase (Bacillus). As to conditions: typical DNJ inhibitory activity shown for reference, in words; cited from earlier work.
In the next assay the target is T3, α-D-glucosidase (Yeast) (Saccharomyces cerevisiae, UniProt P53341).
T3 construct: purchased Sigma-Aldrich
As to conditions: typical DNJ inhibitory activity shown for reference, in words; cited from earlier work.

Assay [4] relates to naringinase (P. decumbens). On the set-up: key: NI = no inhibition. As to conditions: typical DNJ inhibitory activity shown for reference, in words; cited from earlier work.
A further assay addresses T4, α-D-glucosidase (rice) (Oryza sativa subsp. japonica, UniProt Q653V7).
T4 construct: purchased Sigma-Aldrich
As to conditions: typical DNJ inhibitory activity shown for reference, in words; cited from earlier work.

Assay [5] deals with T5, β-glucuronidase (bovine liver) (Bos taurus, UniProt A3KMY8).
T5 construct: purchased Sigma-Aldrich; host or cells: bovine liver
T5 sequence (A3KMY8 1-652): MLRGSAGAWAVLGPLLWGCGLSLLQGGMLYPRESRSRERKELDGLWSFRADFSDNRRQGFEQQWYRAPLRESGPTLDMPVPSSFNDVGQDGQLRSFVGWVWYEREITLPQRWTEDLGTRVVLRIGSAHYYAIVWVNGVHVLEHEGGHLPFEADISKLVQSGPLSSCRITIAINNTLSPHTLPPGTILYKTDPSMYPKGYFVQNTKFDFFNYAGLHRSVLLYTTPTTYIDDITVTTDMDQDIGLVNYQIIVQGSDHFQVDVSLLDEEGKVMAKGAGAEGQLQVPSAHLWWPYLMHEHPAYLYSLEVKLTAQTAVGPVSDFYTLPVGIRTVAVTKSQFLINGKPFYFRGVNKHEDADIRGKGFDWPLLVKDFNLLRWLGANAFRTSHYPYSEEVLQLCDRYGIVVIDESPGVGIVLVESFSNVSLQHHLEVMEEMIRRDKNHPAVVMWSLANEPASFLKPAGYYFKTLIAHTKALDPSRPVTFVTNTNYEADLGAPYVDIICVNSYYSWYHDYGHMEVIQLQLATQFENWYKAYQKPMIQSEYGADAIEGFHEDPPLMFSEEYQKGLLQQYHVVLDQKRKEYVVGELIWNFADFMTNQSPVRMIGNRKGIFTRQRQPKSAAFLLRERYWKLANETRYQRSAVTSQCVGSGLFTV
On the set-up: key: NI = no inhibition. As to conditions: typical DNJ inhibitory activity shown for reference, in words; cited from earlier work.

Assay [6] relates to N-acetyl-β-D-gluc (Jack bean). Details: key: NI = no inhibition. As to conditions: typical DNJ inhibitory activity shown for reference, in words; cited from earlier work.
Assay [7] deals with β-D-mannosidase Cellulomonas fimi. Details: key: NI = no inhibition. As to conditions: typical DNJ inhibitory activity shown for reference, in words; cited from earlier work.
Assay [8] relates to N-acetyl-β-D-gluc (Bovine kidney). On the set-up: key: NI = no inhibition. As to conditions: typical DNJ inhibitory activity shown for reference, in words; cited from earlier work.
A further assay concerns glycogen phosphorylase. As to the kind of experiment: Glycogen phosphorylase assay. The class given is biochemical. As to conditions: words, no concentration.

T2 sequence (Q42656 16-378): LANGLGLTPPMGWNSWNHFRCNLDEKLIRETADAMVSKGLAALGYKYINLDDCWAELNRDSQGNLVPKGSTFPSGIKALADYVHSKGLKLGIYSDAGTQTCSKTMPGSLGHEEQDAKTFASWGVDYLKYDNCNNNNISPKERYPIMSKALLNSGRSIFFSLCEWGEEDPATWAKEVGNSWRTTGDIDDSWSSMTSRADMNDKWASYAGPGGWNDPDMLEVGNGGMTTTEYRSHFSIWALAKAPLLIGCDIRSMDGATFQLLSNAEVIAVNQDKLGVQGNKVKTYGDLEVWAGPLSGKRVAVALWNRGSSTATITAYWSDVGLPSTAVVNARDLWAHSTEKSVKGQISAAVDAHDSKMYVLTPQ
T4 sequence (Q653V7 34-885): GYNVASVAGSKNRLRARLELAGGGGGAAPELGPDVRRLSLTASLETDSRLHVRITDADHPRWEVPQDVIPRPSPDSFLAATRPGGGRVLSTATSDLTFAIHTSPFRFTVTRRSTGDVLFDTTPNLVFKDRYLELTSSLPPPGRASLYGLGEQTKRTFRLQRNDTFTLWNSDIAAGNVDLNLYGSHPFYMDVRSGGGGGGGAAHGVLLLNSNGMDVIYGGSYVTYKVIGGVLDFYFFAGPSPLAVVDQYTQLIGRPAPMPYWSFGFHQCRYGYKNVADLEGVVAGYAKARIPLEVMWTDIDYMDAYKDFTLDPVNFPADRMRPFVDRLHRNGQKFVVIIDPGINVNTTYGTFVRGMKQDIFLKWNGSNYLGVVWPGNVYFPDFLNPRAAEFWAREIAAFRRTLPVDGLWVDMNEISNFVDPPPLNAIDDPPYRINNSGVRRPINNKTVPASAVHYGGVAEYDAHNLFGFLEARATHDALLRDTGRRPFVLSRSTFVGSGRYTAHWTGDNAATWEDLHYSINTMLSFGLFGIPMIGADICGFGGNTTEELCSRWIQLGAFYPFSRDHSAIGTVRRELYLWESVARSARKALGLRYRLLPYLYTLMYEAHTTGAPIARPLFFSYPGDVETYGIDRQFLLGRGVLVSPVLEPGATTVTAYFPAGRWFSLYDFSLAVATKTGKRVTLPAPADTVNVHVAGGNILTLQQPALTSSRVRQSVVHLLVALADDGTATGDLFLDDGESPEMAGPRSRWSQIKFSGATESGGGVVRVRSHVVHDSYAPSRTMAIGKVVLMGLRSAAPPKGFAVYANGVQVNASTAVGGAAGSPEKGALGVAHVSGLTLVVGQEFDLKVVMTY
T3 sequence (P53341 whole entry): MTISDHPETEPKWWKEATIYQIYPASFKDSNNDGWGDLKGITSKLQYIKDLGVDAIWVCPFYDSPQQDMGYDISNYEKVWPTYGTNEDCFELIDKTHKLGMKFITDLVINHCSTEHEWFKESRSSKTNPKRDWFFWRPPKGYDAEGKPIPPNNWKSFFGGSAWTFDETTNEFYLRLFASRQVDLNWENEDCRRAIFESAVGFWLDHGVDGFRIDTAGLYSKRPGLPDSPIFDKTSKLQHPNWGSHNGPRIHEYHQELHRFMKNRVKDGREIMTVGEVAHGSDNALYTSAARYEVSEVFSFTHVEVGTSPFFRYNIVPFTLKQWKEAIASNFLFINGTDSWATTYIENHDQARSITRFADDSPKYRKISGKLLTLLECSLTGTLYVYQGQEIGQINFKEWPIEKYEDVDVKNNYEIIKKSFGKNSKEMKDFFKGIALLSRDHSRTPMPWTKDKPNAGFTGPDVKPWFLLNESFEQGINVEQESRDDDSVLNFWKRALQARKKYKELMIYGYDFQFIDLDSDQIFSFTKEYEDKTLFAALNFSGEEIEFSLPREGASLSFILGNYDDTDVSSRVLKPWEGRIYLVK

In the case of `OC[C@H]1NC[C@H](O)[C@@H](O)[C@@H]1O` [DNJ, 1 deoxynojirmycin], in [1], the “β-D-gal bovine, typical DNJ inhibitory activity” value was “NI”. Further, the “α-D-gal green coffee bean, typical DNJ inhibitory activity” value in assay [2] is “weak”. Moreover, in assay [3], the “α-D-glu Bacillus, typical DNJ inhibitory activity” value is “potent”. Besides, on α-D-glucosidase (Yeast), the “α-D-glu Yeast, typical DNJ inhibitory activity” value is listed as “weak”. For the same molecule, in assay [4], the “naringinase Penecillium, typical DNJ inhibitory activity” value is given as “NI”. Moreover, on α-D-glucosidase (rice), the “α-D-glu rice, typical DNJ inhibitory activity” value is on record as “potent”. Moreover, the “β-glucuronidase (bovine liver), typical DNJ inhibitory activity” value in assay [5] is “NI”. Moreover, in assay [6], the “N-acetyl-β-D-gluc (Jack bean), typical DNJ inhibitory activity” value is recorded as “NI”. Moreover, the “β-D-man Cellulomonas, typical DNJ inhibitory activity” value in assay [7] is recorded as “NI”. The “N-acetyl-β-D-gluc (Bovine kidney, typical DNJ inhibitory activity)” value in assay [8] is “NI”. The “glycogen phosphorylase inhibition” value in the assay with glycogen phosphorylase is “do not inhibit”.

The values are drawn from patent US11484561B2, “Morus extracts rich in N-acids of imino sugars and or pipecolic acids” (Phynova Limited, priority 2011, dated 2022).
